Measured values taken from the METLIN SMRT retention time set (Domingo-Almenara et al. 2019).

experiment: gradient 5% acetonitrile 3 min, to 50% in 2 min, to 85% in 15 min, held 3 min, 100 µL/min; settings: column: Zorbax Extend-C18 2.1 x 50 mm; eluents: water / acetonitrile, 0.1% formic acid
Outline: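 Retention times of pure standards were taken from adduct peaks that were selected by computer and manually inspected. Over 3 months, mixtures of ~100 molecules were run by HPLC–quadrupole time-of-flight mass spectrometry in positive and negative ionization mode. The Zorbax Extend-C18 column (2.1 × 50 mm, 1.8 μm) ran at 100 μL/min in water and acetonitrile, each containing 0.1% formic acid, with 40 μL dead volume and 900 μL dwell volume.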

| RP-LC retention time [s] | Structure (SMILES) |
| --- | --- |
| 730 | O=C(c1ccsc1)N1CCN(c2cc(-c3ccccc3)[nH]n2)CC1 |
| 915 | CC#C[C@@H](CC(=O)O)c1ccc(OCc2ccc(CN3CCC4(C=Cc5ccccc54)CC3)s2)cc1 |
| 754 | Cc1cccc(NC(=O)C2CCCN(c3nnc(C)c4c(C)n(-c5ccccc5)nc34)C2)c1C (stereo not given) |
| 1010 | COc1ccc(-n2c(=O)n(C)c(=O)c3cc(C(=O)Nc4cccc(Cl)c4)cnc32)cc1 |
| 796 | CC1CC(=O)N(CC(=O)Nc2cccc(Cl)c2)c2ccccc2S1(=O)=O (stereo not given) |
| 904 | CCn1cc(-c2nc(C)c(C(=O)NCc3cccc(OC)c3)s2)c2cccnc21 |
| 1120 | CCc1ccc(N2C(=O)C3N=NN(Cc4nc(-c5cccc(Br)c5)no4)C3C2=O)cc1 (stereo not given) |
| 1080 | CC1=NS(=O)(=O)N(Cc2ccccc2)C=C1C(=O)OCc1ccc(F)cc1 |
| 931 | CCOc1ccc(-c2cn3ccn(-c4ccc(Br)cc4)c(=O)c3n2)cc1 |
| 595 | CN(C)C(=O)CN1CCN(c2ccc(NC(=O)C(C)(C)C)c(C(=O)O)c2)CC1 |
| 718 | O=C(NC1CCN(C(=O)c2cc(-c3cccc(Cl)c3)n[nH]2)CC1)c1cccs1 |
| 815 | Cc1ccc(CNC(=O)CCCN2C(=O)CCn3nc(-c4cn(C)c5ccccc45)cc32)o1 |
| 1120 | CCN(Cc1ccccc1)C(=O)c1cn(-c2cc(N3CCC(C)CC3)ncn2)cn1 |
| 757 | O=C(Cc1nc(-c2ccccc2)n[nH]1)Nc1ccc(F)c(F)c1 |
| 891 | O=C(CSc1nc2ccccc2o1)Nc1cc(C(F)(F)F)ccc1Cl |
| 743 | CCOC(=O)COc1cc(-c2ccccc2)nc2ccc(NC(=O)c3ccco3)cc12 |
| 570 | O=C(NC1CCN(Cc2ccccc2)CC1)C1CCN(c2cnc3nccnc3c2)CC1 |
| 691 | Cc1ccc(-c2cc(=O)n(CC(=O)Nc3nccs3)cn2)cc1 |
| 743 | COC(=O)c1cccc(NC(=O)CSc2nccc(N3CCN(c4ccc(OC)cc4)CC3)n2)c1 |
| 857 | COC(=O)CNC(=O)C1c2ccccc2C(=O)N(Cc2ccccc2)C12CCCC2 (stereo not given) |

| RP-LC retention time [s] | Structure (SMILES) |
| --- | --- |
| 716 | CCN1CCn2cc(S(=O)(=O)Nc3ccc(OC)cc3C)cc2C1=O |
| 629 | O=C(O)c1ccc(Nc2c3ccccc3nc3ccccc23)cc1 |
| 831 | Cc1cccc(CNC(=O)CN2CCN(Cc3ccc(F)cc3)C2=O)c1 |
| 1120 | Fc1ccc(-n2cc(-c3noc(-c4nccc5ccccc45)n3)nn2)cc1 |
| 916 | O=C(NCC1CCCO1)c1cn(-c2ccccc2)nc1-c1ccccc1 (stereo not given) |
| 804 | COc1ccc(NC(=O)N2CCc3nc(-c4ccccc4)ncc3C2)cc1OC |
| 726 | CN(C)c1ccc(-c2nc3ncccn3c2NCc2ccccc2)cc1 |
| 674 | CNC(=O)c1ccc(-c2nc3cc(NS(=O)(=O)c4ccc(F)c(Cl)c4)ccc3n2C)cc1 |
| 628 | CCOC(=O)N1CCN(c2cc(C(=O)O)c3cc(NC(=O)c4ccccc4F)ccc3n2)CC1 |
| 869 | COc1cccc(OCC(=O)N2CC(=O)Nc3ccccc32)c1 |
| 1110 | O=C(c1ccccc1Br)N1CCc2nc(-c3ccc(Cl)cc3)ncc2C1 |
| 601 | CCc1cc(N2CCN(C(=O)c3cc(OC)cc(OC)c3)CC2)nc2nncn12 |
| 1130 | O=C(COc1ccccc1)Nc1nc(-c2ccc(Cl)cc2)cs1 |
| 736 | COc1ccccc1CNC(=O)C1(c2ccc(NC(C)=O)cc2)CCC1 |
| 761 | COc1ccc(Cl)cc1NC(=O)N1CCCC(Cn2cnc3cccnc32)C1 (stereo not given) |
| 588 | CC(=O)Nc1ccc(NC(=O)C(=O)NCCN2CCN(c3ccc(Cl)cc3)CC2)cc1 |
| 617 | CC(=O)N1c2ccc(S(=O)(=O)N3CCCC3C(=O)Nc3cc(C)ccn3)cc2CC1C (stereo not given) |
| 800 | O=C(Cc1cccc(F)c1)Nc1cc(-c2ccccn2)no1 |
| 648 | O=C(O)c1cccc(Nc2c(-c3ccc(N4CCOCC4)cc3)nc3cnccn23)c1 |

The remaining lines, values behind:

| Structure (SMILES) | RP-LC retention time [s] |
| --- | --- |
| COCC1(O)CCOC2(CCN(Cc3ccc(C)cc3C)CC2)C1 (stereo not given) | 559 |
| Cn1nc(-c2nnc(-c3ccc(F)cc3)o2)c2c1CCN(S(=O)(=O)c1ccc(Cl)s1)C2 | 1010 |
| Nc1c2c(nc3c1CCC3)CCCC2 | 624 |
| COc1cc(N)c(Cl)cc1C(=O)OCCCN1CCCCC1 | 655 |
| COc1cc(CN2CCC3(CCC3O)CC2)ccc1OC(C)C (stereo not given) | 614 |
| CCOc1ccc(CNC(=O)c2snc(C(=O)NCc3ccccc3Cl)c2N)cc1OCC | 1090 |
| Cc1ccc(C)c(S(=O)(=O)N2CC[C@H](n3c(=O)n(C)c4cccnc43)C2)c1 | 892 |
| Cc1cc(C)cc(-n2ccn3c(CCC(=O)NCCc4c[nH]c5ccccc45)nnc3c2=O)c1 | 744 |
| Cn1cc(-c2ccncc2)cc1C(=O)NCc1ccc(F)cc1F | 648 |
| CCCNC(=O)NCCC1CCN(S(=O)(=O)c2ccccc2)CC1 | 753 |
| CC(=O)Nc1ccc(C2(C(=O)N3CCCCCC3)CCC2)cc1 | 769 |
| C=CCN1C(=O)COc2ccc(-c3csc(NC(=O)C4CC4)n3)cc21 | 842 |
| Cc1ccc(NC(=O)CC2SC3=NCCN3C2=O)cc1 (stereo not given) | 578 |
| Cc1nnc(-c2cc(C)n(CC(=O)Nc3ccc(Cl)cc3)c2C)o1 | 820 |
| COc1ncc(C(=O)NCc2ccc(F)c(Cl)c2)cn1 | 756 |
| Cc1ccc(N2C(=O)CN(S(C)(=O)=O)CC2(C)C(=O)NC2CCCCCC2)cc1Cl (stereo not given) | 946 |
| CCCN(CC1CCOC1)C(=O)c1cc(C)cc(C)c1 (stereo not given) | 868 |
| CCN1CCCn2cc(S(=O)(=O)NCCCc3ccccc3)cc2C1=O | 785 |
| Cc1ccc(N2CCC(NC(=O)c3cc(F)cc(F)c3)C2=O)cc1C (stereo not given) | 943 |
| CC(C)CCNC(=O)C1Cn2cccc2C(=O)N1CC(C)C (stereo not given) | 799 |
| Cc1nc(-c2cn(C(C)C)c3ncccc23)sc1C(=O)NCc1cccs1 | 970 |
| CC(C)n1nccc1-c1csc(S(=O)(=O)N2CCC3(CC2)OCCO3)c1 | 922 |
| Cn1c(=O)c(NCCCN2CCCc3ccccc32)nc2ccncc21 | 665 |
| O=C(c1ccc(C(F)(F)F)s1)N1CCN(c2nc(CN3CCCCC3)cs2)CC1 | 703 |
| O=C(NCCCN1CCOCC1)C1CCc2sc(C(=O)N3CCOCC3)cc2C1 (stereo not given) | 568 |
| Cn1ncc2c3ccccc3n(CCCC(=O)NCc3ccccc3F)c2c1=O | 812 |

| Structure (SMILES) | RP-LC retention time [s] |
| --- | --- |
| CCn1nc(C(=O)Nc2nc3c(OC)ccc(C)c3s2)cc1C | 872 |
| CCCn1nnnc1NCc1ccc(-c2ccc(Br)cc2)o1 | 957 |
| Cn1cc(C(=O)NCc2cccs2)c2cccnc21 | 691 |
| Cc1cc2n(n1)CCC(=O)N2CCCC(=O)NCCCN1CCCC(C)C1 (stereo not given) | 570 |
| CC(C)CN(C1CCN(C)CC1)C1CN(C(=O)c2cccs2)C1 | 586 |
| Nc1cc(C2CCN(C(=O)c3cccc(F)c3)CC2)no1 | 658 |
| O=C(c1sc2ncccc2c1-n1cccc1)N1CCSCC1 | 842 |
| Cc1nc(C)c(C(=O)NCC2Cn3cccc3C(=O)N2CC(C)C)s1 (stereo not given) | 671 |
| Cc1oc(-c2cccc(Cl)c2)nc1Cn1nnc(-c2nc(-c3ccc(F)cc3)no2)c1C | 869 |
| CC(=O)Nc1ccc(OC[C@](C)(O)C(=O)Nc2ccc([N+](=O)[O-])c(C(F)(F)F)c2)cc1 | 858 |
| Cn1cc(-c2cc3n(n2)CCC(=O)N3CCCC(=O)Nc2ccc(F)cc2F)c2ccccc21 | 860 |
| O=C(Nc1ccc(F)cc1Cl)c1c(O)c2cccnc2n(Cc2ccccc2)c1=O | 1240 |
| CCc1nc(-c2csc(S(=O)(=O)N3CCC(C(=O)N4CCCCC4)CC3)c2)no1 | 903 |
| Cc1cc(C(=O)NCC(C)C)c2cc(Cl)ccc2n1 | 784 |
| O=C(NCc1ccccc1C(F)(F)F)c1cn2c(n1)CCCC2 | 640 |
| CC(=O)NCC(=O)N1CC(F)(F)C[C@H]1c1nc(C2CC2)no1 | 639 |
| Cn1c(N2CCCC(C(=O)N3CCN(Cc4ccccc4)CC3)C2)cc(=O)n(C)c1=O (stereo not given) | 597 |
| COCC(C)(O)CNC(=O)c1ccco1 (stereo not given) | 549 |
| Cc1nn(-c2ccccc2)c2c1N(CC(=O)NCCC(C)C)C(=O)CS2 | 821 |
| CCCCN(CC)S(=O)(=O)c1ccc(C(=O)Nc2nc3c(s2)Cc2ccccc2-3)cc1 | 1230 |
| Cc1ccccc1NS(=O)(=O)c1cc(-c2[nH]ncc2C(=O)N2CCCC2)oc1C | 700 |
| O=C(c1ccc2c(c1)OCO2)N1CCC(c2ccncc2)CC1 | 584 |
| Cc1ccccc1-c1noc(N2CCC(C(=O)N3CCN(C4CCCCC4)CC3)CC2)n1 | 705 |
| O=C(NCc1cc(F)ccc1F)C1CCN(c2cncnc2N2CCCCC2)CC1 | 709 |
| Cc1ccc(C)c(NC(=O)NC2CCN(c3ccc(F)c(C)c3)C2=O)c1 (stereo not given) | 891 |
